Patent US8163766B2, “Beta-secretase modulators and methods of use” (Amgen Inc., priority 2005, dated 2012)
pIC50: −log10 of the molar value.

Each molecule was assayed on Aβ 40 in conditioned media of cells stably expressing Amyloid Precursor Protein (APP) (assay: BACE Cell-Based Assay (Aβ40 in conditioned medium, sandwich ELISA)). Details: 24 hours of incubation with the test compounds, Aβ 40 by sandwich ELISA, read-out: IC50 values in the cell-based assay (inhibition of Aβ 40).
Summary of the method: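 APP-stably-expressing cells in DMEM/10% FBS exposed 24 h to 10-point compound dilutions starting at 100 or 10 μM, 0.1% DMSO final. Aβ40 in conditioned medium measured by sandwich ELISA (pAb40 capture, biotinylated 6E10 detection, Eu time-resolved fluorescence); IC50 from percent inhibition versus concentration.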

pIC50, ≥ 5.30:
CCc1ccc2c(c1)[C@@H](NCC(=O)[C@H](Cc1ccccc1)NC(=O)[C@@H]1CN(C(=O)N3CCCCC3)CCO1)CC(C)(C)O2 [Example 475, (2S)-N-((1S)-3-(((4S)-6-ethyl-2,2-dimethyl-3,4-dihydro-2H-chromen-4-yl)amino)-2-oxo-1-(phenylmethyl)propyl)-4-(1-piperidinylcarbonyl)-2-morpholinecarboxamide]
O=C(N[C@@H](Cc1ccccc1)[C@H](O)CN[C@H]1CC2(CCC2)Oc2ccccc21)c1cc(-c2ccccn2)c(=O)n(C2CCCC2)c1 [Example 476, 1′-cyclopentyl-N-((1S,2R)-3-((4S)-3,4-dihydrospiro[chromene-2,1′-cyclobutan]-4-ylamino)-2-hydroxy-1-(phenylmethyl)propyl)-2′-oxo-1′,2′-dihydro-2,3′-bipyridine-5′-carboxamide]
CC#CC[C@H](NC(=O)c1cc(-c2ccccn2)c(=O)n(C2CCCC2)c1)[C@H](O)CN[C@H]1CC2(CCC2)Oc2ccc(CC)cc21 [Example 477, 1′-cyclopentyl-N-((1S)-1-((1R)-2-(((4S)-6-ethyl-3,4-dihydrospiro[chromene-2,1′-cyclobutan]-4-yl)amino)-1-hydroxyethyl)-3-pentyn-1-yl)-2′-oxo-1′,2′-dihydro-2,3′-bipyridine-5′-carboxamide]
C[C@@H](N[C@H]1CC(C)(C)Oc2ccc(Br)cc21)[C@H](O)[C@H](Cc1ccccc1)NC(=O)c1cc(-c2ccccn2)c(=O)n(C2CCCC2)c1 [Example 480, N-((1S,2S,3R)-3-(((4S)-6-bromo-2,2-dimethyl-3,4-dihydro-2H-chromen-4-yl)amino)-2-hydroxy-1-(phenylmethyl)butyl)-1′-cyclopentyl-2′-oxo-1′,2′-dihydro-2,3′-bipyridine-5′-carboxamide]
CC1(C)C[C@@H](NC[C@@H](O)[C@H](Cc2ccccc2)NC(=O)c2cc(-c3ccccn3)c(=O)n(C3CCCC3)c2)c2cc(Br)ccc2N1 [Example 481, N-((1S,2R)-3-(((4R)-6-bromo-2,2-dimethyl-1,2,3,4-tetrahydro-4-quinolinyl)amino)-2-hydroxy-1-(phenylmethyl)propyl)-1′-cyclopentyl-2′-oxo-1′,2′-dihydro-2,3′-bipyridine-5′-carboxamide]
CC1(C)C[C@H](NC[C@@H](O)[C@H](Cc2ccccc2)NC(=O)c2cc(-c3ccccn3)c(=O)n(C3CCCC3)c2)c2cc(Br)ccc2N1 [Example 482, N-((1S,2R)-3-(((4S)-6-bromo-2,2-dimethyl-1,2,3,4-tetrahydro-4-quinolinyl)amino)-2-hydroxy-1-(phenylmethyl)propyl)-1′-cyclopentyl-2′-oxo-1′,2′-dihydro-2,3′-bipyridine-5′-carboxamide]
CCCOC[C@H](NC(=O)c1cc(-c2ccccn2)c(=O)n(C2CCCC2)c1)[C@H](O)CN[C@H]1CC2(CCC2)Oc2ccc(CC)cc21 [Example 483, 1′-cyclopentyl-N-((1S,2R)-3-(((4S)-6-ethyl-3,4-dihydrospiro[chromene-2,1′-cyclobutan]-4-yl)amino)-2-hydroxy-1-((propyloxy)methyl)propyl)-2′-oxo-1′,2′-dihydro-2,3′-bipyridine-5′-carboxamide]
CCc1ccc2c(c1)[C@@H](NC[C@@H](O)[C@H](Cc1ccccc1)NC(=O)[C@H]1CN(C(=O)N3CCCCC3)CCO1)CC(C)(C)O2 [Example 484, (2R)-N-((1S,2R)-3-(((4S)-6-ethyl-2,2-dimethyl-3,4-dihydro-2H-chromen-4-yl)amino)-2-hydroxy-1-(phenylmethyl)propyl)-4-(1-piperidinylcarbonyl)-2-morpholinecarboxamide]
CCc1ccc2c(c1)[C@@H](NC[C@@H](O)[C@H](Cc1ccccc1)NC(=O)[C@@H]1CN(C(=O)N3CCCCC3)CCO1)CC(C)(C)O2 [Example 485, (2S)-N-((1S,2R)-3-(((4S)-6-ethyl-2,2-dimethyl-3,4-dihydro-2H-chromen-4-yl)amino)-2-hydroxy-1-(phenylmethyl)propyl)-4-(1-piperidinylcarbonyl)-2-morpholinecarboxamide]
CC(C)(C)Cc1ccc2c(c1)[C@H](NC[C@@H](O)[C@H](Cc1ccccc1)NC(=O)c1cc(-c3ccccn3)c(=O)n(C3CCCC3)c1)CC(C)(C)N2 [Example 488, 1′-cyclopentyl-N-((1S,2R)-3-(((4R)-6-(2,2-dimethylpropyl)-2,2-dimethyl-1,2,3,4-tetrahydro-4-quinolinyl)amino)-2-hydroxy-1-(phenylmethyl)propyl)-2′-oxo-1′,2′-dihydro-2,3′-bipyridine-5′-carboxamide]
CC(C)(C)Cc1ccc2c(c1)[C@@H](NC[C@@H](O)[C@H](Cc1ccccc1)NC(=O)c1cc(-c3ccccn3)c(=O)n(C3CCCC3)c1)CC(C)(C)N2 [Example 489, 1′-cyclopentyl-N-((1S,2R)-3-(((4S)-6-(2,2-dimethylpropyl)-2,2-dimethyl-1,2,3,4-tetrahydro-4-quinolinyl)amino)-2-hydroxy-1-(phenylmethyl)propyl)-2′-oxo-1′,2′-dihydro-2,3′-bipyridine-5′-carboxamide]
Cc1cccc(C(=O)N2CCO[C@H](C(=O)N[C@@H](Cc3cccc(C#N)c3)[C@H](O)CN[C@H]3CC4(CCC4)Cc4ncc(C)cc43)C2)c1 [Example 490, (2S)-N-((1S,2R)-1-((3-cyanophenyl)methyl)-2-hydroxy-3-(((5′S)-3′-methyl-5′,8′-dihydro-6′H-spiro[cyclobutane-1,7′-quinolin]-5′-yl)amino)propyl)-4-((3-methylphenyl)carbonyl)-2-morpholinecarboxamide]
Cc1cccc(C(=O)N2CCO[C@@H](C(=O)N[C@@H](Cc3cccc(C#N)c3)[C@H](O)CN[C@H]3CC4(CCC4)Cc4ncc(C)cc43)C2)c1 [Example 491, (2R)-N-((1S,2R)-1-((3-cyanophenyl)methyl)-2-hydroxy-3-(((5′S)-3′-methyl-5′,8′-dihydro-6′H-spiro[cyclobutane-1,7′-quinolin]-5′-yl)amino)propyl)-4-((3-methylphenyl)carbonyl)-2-morpholinecarboxamide]
Cc1cccc(C(=O)N2CCO[C@H](C(=O)N[C@@H](Cc3cc(F)cc(F)c3)[C@H](O)CN[C@H]3CC4(CCC4)Cc4ncc(C)cc43)C2)c1 [Example 492, (2S)-N-((1S,2R)-1-((3,5-difluorophenyl)methyl)-2-hydroxy-3-(((5′S)-3′-methyl-5′,8′-dihydro-6′H-spiro[cyclobutane-1,7′-quinolin]-5′-yl)amino)propyl)-4-((3-methylphenyl)carbonyl)-2-morpholinecarboxamide]
Cc1cccc(C(=O)N2CCO[C@@H](C(=O)N[C@@H](Cc3cc(F)cc(F)c3)[C@H](O)CN[C@H]3CC4(CCC4)Cc4ncc(C)cc43)C2)c1 [Example 493, (2R)-N-((1S,2R)-1-((3,5-difluorophenyl)methyl)-2-hydroxy-3-(((5′S)-3′-methyl-5′,8′-dihydro-6′H-spiro[cyclobutane-1,7′-quinolin]-5′-yl)amino)propyl)-4-((3-methylphenyl)carbonyl)-2-morpholinecarboxamide]
Cc1cccc(C(=O)N2CCO[C@H](C(=O)N[C@@H](Cc3ccccc3)[C@H](O)CN[C@H]3CC4(CCC4)Cc4ncc(C)cc43)C2)c1 [Example 494, (2S)-N-((1S,2R)-2-hydroxy-3-(((5′S)-3′-methyl-5′,8′-dihydro-6′H-spiro[cyclobutane-1,7′-quinolin]-5′-yl)amino)-1-(phenylmethyl)propyl)-4-((3-methylphenyl)carbonyl)-2-morpholinecarboxamide]
Cc1cccc(C(=O)N2CCO[C@@H](C(=O)N[C@@H](Cc3ccccc3)[C@H](O)CN[C@H]3CC4(CCC4)Cc4ncc(C)cc43)C2)c1 [Example 495, (2R)-N-((1S,2R)-2-hydroxy-3-(((5′S)-3′-methyl-5′,8′-dihydro-6′H-spiro[cyclobutane-1,7′-quinolin]-5′-yl)amino)-1-(phenylmethyl)propyl)-4-((3-methylphenyl)carbonyl)-2-morpholinecarboxamide]
Cc1cccc(C(=O)N2CCO[C@H](C(=O)N[C@@H](Cc3cccc(C#N)c3)[C@H](O)CN[C@H]3CC(C)(C)Cc4ncc(C)cc43)C2)c1 [Example 496, (2S)-N-((1S,2R)-1-((3-cyanophenyl)methyl)-2-hydroxy-3-(((5S)-3,7,7-trimethyl-5,6,7,8-tetrahydro-5-quinolinyl)amino)propyl)-4-((3-methylphenyl)carbonyl)-2-morpholinecarboxamide]
Cc1cccc(C(=O)N2CCO[C@@H](C(=O)N[C@@H](Cc3cccc(C#N)c3)[C@H](O)CN[C@H]3CC(C)(C)Cc4ncc(C)cc43)C2)c1 [Example 497, (2R)-N-((1S,2R)-1-((3-cyanophenyl)methyl)-2-hydroxy-3-(((5S)-3,7,7-trimethyl-5,6,7,8-tetrahydro-5-quinolinyl)amino)propyl)-4-((3-methylphenyl)carbonyl)-2-morpholinecarboxamide]
Cc1cccc(C(=O)N2CCO[C@H](C(=O)N[C@@H](Cc3ccccc3)[C@H](O)CN[C@H]3CC(C)(C)Cc4ncc(C)cc43)C2)c1 [Example 498, (2S)-N-((1S,2R)-2-hydroxy-1-(phenylmethyl)-3-(((5S)-3,7,7-trimethyl-5,6,7,8-tetrahydro-5-quino-linyl)amino)propyl)-4-((3-methylphenyl)carbonyl)-2-morpholinecarboxamide]
Cc1cccc(C(=O)N2CCO[C@@H](C(=O)N[C@@H](Cc3ccccc3)[C@H](O)CN[C@H]3CC(C)(C)Cc4ncc(C)cc43)C2)c1 [Example 499, (2R)-N-((1S,2R)-2-hydroxy-1-(phenylmethyl)-3-(((5S)-3,7,7-trimethyl-5,6,7,8-tetrahydro-5-quinolinyl)amino)propyl)-4-((3-methylphenyl)carbonyl)-2-morpholinecarboxamide]
